Experimental data published in article PMC3498832, “Mechanistic and structural basis for inhibition of thymidylate synthase ThyX” (Open Biology, 2012).
Like-named read-outs stand apart in the source and are kept apart here. Marks after values point to notes of the source that are not given here.

Tests used:
PBCV-1 ThyX [1] = molecular target: T1, PBCV-1 ThyX (Paramecium bursaria Chlorella virus 1, UniProt O41156); test: 'deprotonation' activity (tritium release assay from [5-3H]dUMP); assay type: biochemical, Paramecium bursaria chlorella virus (PBCV-1); conditions: compound 20 µM
T1 construct: made in house; host or cells: E. coli BL21

PBCV-1 ThyX [2] = molecular target: T1, PBCV-1 ThyX; test: NADPH oxidation assay of ThyX activity (decrease of A340); assay type: biochemical, Paramecium bursaria chlorella virus (PBCV-1)
C. trachomatis ThyX = test: ThyX activity with isolated C. trachomatis ThyX; assay type: biochemical, Chlamydia trachomatis
[3] = system: E. coli FE010 (ΔthyA::PBCV-1 thyX tdk+); test: Growth inhibition (CFU) of genetically modified E. coli dependent on thyX
Description: (§1) Escherichia coli MG1655 (wild-type, thyA^+ tdk^+) and FE010 [ΔthyA::PBCV-1 thyX tdk^+] [26] were grown at 37°C either in thymidine-containing LB medium or thymidine-free M9 minimal medium supplemented with 0.1 mM CaCl2, 2 mM MgSO4 and 0.2 per cent casamino acids (Difco). IPTG-induced overexpression of target protein PBCV-1 ThyX was used to test titration of inhibitor in the bacterial cell. When necessary, thymidine (40 µg ml^−1) and kanamycin (40 µg ml^−1) were added to the growth medium. The cells were then harvested and washed two times with M9 medium to remove the remaining thymidine. The cells were diluted to an OD600 of approximately 0.1 using M9 medium and 1 ml of cell suspension was transferred to 24-well microplates (Nunc). Compounds were dissolved in DMSO and were added at indicated concentrations. No cells and DMSO-only controls were included for each medium composition. The plates were closed with plastic lids and incubated at 37°C with shaking at 160 r.p.m. After 24 h of incubation, 100 µl of 10-fold serial dilutions were plated onto LB plates or LB plates supplemented with kanamycin (40 µg ml^−1) when appropriate. Colonies were enumerated after overnight incubation at 37°C. Colony-forming units (CFU) per millilitre for each growth condition were determined from three independent experiments.

H. pylori ThyX = molecular target: T2, H. pylori ThyX (Helicobacter pylori, UniProt O26061); assay type: biochemical
T2 construct: made in house; host or cells: E. coli BL21
T2 sequence (O26061 1-208): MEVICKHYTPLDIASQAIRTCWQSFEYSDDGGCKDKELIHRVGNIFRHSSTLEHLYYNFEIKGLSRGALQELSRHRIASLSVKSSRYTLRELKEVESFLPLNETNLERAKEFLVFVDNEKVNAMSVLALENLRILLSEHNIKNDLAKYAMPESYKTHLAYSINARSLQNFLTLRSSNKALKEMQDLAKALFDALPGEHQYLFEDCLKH

[4] = molecular target: T3, human thymidylate synthase (Homo sapiens, UniProt P04818); test: Human thymidylate synthase activity; assay type: biochemical; conditions: data not shown
T3 construct: made in house; host or cells: E. coli BL21

M. tuberculosis ThyX = molecular target: T4, M. tuberculosis ThyX (Mycobacterium tuberculosis, UniProt P9WG57); assay type: biochemical
T4 construct: made in house; host or cells: E. coli BL21

[5] = system: E. coli FE010 carrying plasmid overexpressing PBCV-1 thyX; test: Growth inhibition with IPTG-induced overexpression of PBCV-1 ThyX (selectivity factor, ratio of CFUs)
Description: Escherichia coli MG1655 (wild-type, thyA^+ tdk^+) and FE010 [ΔthyA::PBCV-1 thyX tdk^+] [26] were grown at 37°C either in thymidine-containing LB medium or thymidine-free M9 minimal medium supplemented with 0.1 mM CaCl2, 2 mM MgSO4 and 0.2 per cent casamino acids (Difco). IPTG-induced overexpression of target protein PBCV-1 ThyX was used to test titration of inhibitor in the bacterial cell. When necessary, thymidine (40 µg ml^−1) and kanamycin (40 µg ml^−1) were added to the growth medium. The cells were then harvested and washed two times with M9 medium to remove the remaining thymidine. The cells were diluted to an OD600 of approximately 0.1 using M9 medium and 1 ml of cell suspension was transferred to 24-well microplates (Nunc). Compounds were dissolved in DMSO and were added at indicated concentrations. No cells and DMSO-only controls were included for each medium composition. The plates were closed with plastic lids and incubated at 37°C with shaking at 160 r.p.m. […] Colony-forming units (CFU) per millilitre for each growth condition were determined from three independent experiments.
The values reported are means of three individual experiments. Hundred per cent refers to cell viability, measured as CFU, in the absence of inhibitor. […]

[6] = system: E. coli MG1655 (wild-type, thyA+ tdk+); test: Growth inhibition (CFU) of isogenic wild-type E. coli; conditions: Escherichia coli, MG1655, 24 h, read-out: growth inhibition
Description: as §1

PBCV-1 ThyX [7] = molecular target: T1, PBCV-1 ThyX; test: ThyX assay under anaerobic conditions (NADPH oxidation at 340 nm, FAD reduction at 450 nm); assay type: biochemical, Paramecium bursaria chlorella virus (PBCV-1); conditions: 100 μM dUMP or inhibitor, 400 μM NADPH, 77 μM ThyX bound FAD
Description: ThyX assays (100 μl) under anaerobic conditions contained 77 μM of PBCV-1 ThyX bound FAD in 300 mM NaCl, 1 mM MgCl2, 10 per cent glycerol (m/v) and 50 mM HEPES, pH 8.0. Samples were made anaerobic by repeatedly degassing with argon. Traces of oxygen were removed using the glucose oxidase system (60 units of glucose oxidase and catalase in the presence of 10 mM glucose). Where indicated, 100 μM dUMP, 100 μM inhibitor C8-C1 and 400 μM NADPH were added using an air-tight syringe. NADPH oxidation and FAD reduction were followed spectroscopically (optical path length 1 mm) at 340 and 450 nm, respectively.

PBCV-1 ThyX [8] = molecular target: T1, PBCV-1 ThyX; set-up: method as in PMID 15471872; conditions: cited from earlier work
Thermotoga maritima ThyX = conditions: T. maritima ThyX; no reference given; cited from earlier work
PBCV-1 ThyX [9] = molecular target: T1, PBCV-1 ThyX; test: C8-C1 induced quenching of FAD fluorescence; assay type: binding; conditions: authors' unpublished data
Description: We stress that the total PBCV-1 ThyX concentration used in these assays was 10 μM.

[10] = 10 µM total PBCV-1 ThyX, 5 µM dUMP, 200 µM NADPH, read-out: IC50 (µM) NADPH oxidation

T1 sequence (O41156 whole entry): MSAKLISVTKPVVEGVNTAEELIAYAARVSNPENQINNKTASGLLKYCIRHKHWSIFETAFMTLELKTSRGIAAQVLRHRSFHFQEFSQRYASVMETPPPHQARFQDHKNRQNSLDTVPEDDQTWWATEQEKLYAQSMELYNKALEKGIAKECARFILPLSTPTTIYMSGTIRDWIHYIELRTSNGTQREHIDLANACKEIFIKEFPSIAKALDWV
T4 sequence (P9WG57 whole entry): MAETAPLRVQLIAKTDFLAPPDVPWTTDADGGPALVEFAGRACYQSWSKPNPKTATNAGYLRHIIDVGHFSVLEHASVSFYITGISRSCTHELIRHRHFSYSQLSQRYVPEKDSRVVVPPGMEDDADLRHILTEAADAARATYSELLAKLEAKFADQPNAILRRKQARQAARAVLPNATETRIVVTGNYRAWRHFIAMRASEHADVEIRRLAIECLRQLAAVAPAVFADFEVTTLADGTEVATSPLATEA
T3 sequence (P04818 whole entry): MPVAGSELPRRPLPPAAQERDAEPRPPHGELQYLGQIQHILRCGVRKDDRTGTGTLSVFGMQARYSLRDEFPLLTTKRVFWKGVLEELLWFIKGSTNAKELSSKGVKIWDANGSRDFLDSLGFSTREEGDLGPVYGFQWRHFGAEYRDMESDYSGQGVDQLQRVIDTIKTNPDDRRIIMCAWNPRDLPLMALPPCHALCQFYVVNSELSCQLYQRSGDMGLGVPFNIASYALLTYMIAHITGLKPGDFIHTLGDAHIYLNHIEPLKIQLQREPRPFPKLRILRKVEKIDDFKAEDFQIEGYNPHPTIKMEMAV

Question: With `Cc1ccc(C(=O)CC2=C(O)C(=O)c3ccccc3C2=O)cc1` [F3-C1, 2-hydroxy-3-(2-oxo-2-p-tolylethyl)-1,4-naphthoquinone] as the molecule, how does the inhibition at 20 µM (PBCV-1 ThyX [1]) read?
Answer: 38 ± 7%

Question: What about the IC50 (PBCV-1 ThyX [2]; [10]) of the same molecule?
Answer: 7 µM

Question: For `O=C(CC1=C(O)C(=O)c2ccccc2C1=O)c1ccccc1` [E11-C1, 2-hydroxy-3-(2-oxo-2-phenylethyl)-1,4-naphthoquinone], which inhibition at 20 µM (PBCV-1 ThyX [1]) is on record?
Answer: 36 ± 5%

Question: What about the IC50 (PBCV-1 ThyX [2]; [10]) of the same molecule?
Answer: 11 µM

Question: What does the source list for `COc1ccc(C(=O)CC2=C(O)C(=O)c3ccccc3C2=O)cc1` [G3-C1, 2-hydroxy-3-(2-(4-methoxyphenyl)-2-oxoethyl)-1,4-naphthoquinone]?
Answer: inhibition at 20 µM (PBCV-1 ThyX [1]): 22 ± 7%; IC50 (PBCV-1 ThyX [2]; [10]): 10 µM

Question: With `O=C(CC1=C(O)C(=O)c2ccccc2C1=O)c1cccs1` [H3-C1, 2-hydroxy-3-(2-oxo-2-(thiophen-2-yl)ethyl)-1,4-naphthoquinone] as the molecule, how does the inhibition at 20 µM (PBCV-1 ThyX [1]) read?
Answer: 38 ± 3%

Question: What about the IC50 (PBCV-1 ThyX [2]; [10]) of the same molecule?
Answer: 7 µM

Question: Which results are given for `O=C1C=C(Br)C(=O)c2c(O)cccc21` [2E04, 2-bromo-8-hydroxy-1,4-naphthoquinone]?
Answer: effect on ThyX activity (C. trachomatis ThyX): specifically decreased the activity; growth inhibition after addition of thymidine to the growth medium ([3]; 1.5 μg ml−1, thymidine added): reversed; inhibition at 1.5 µg/mL ([3]; Escherichia coli, 24 h, read-out: inhibition of bacterial growth): ~80%; effect on ThyX activity (H. pylori ThyX): specifically decreased the activity; inhibitory effect on human thymidylate synthase [4]: No inhibitory effect; effect on ThyX activity (M. tuberculosis ThyX): specifically decreased the activity; effect of ThyX overexpression on growth inhibition (selectivity factor) ([5]; 1.5 μg ml−1, with vs without IPTG induction): less-potent growth inhibition; inhibition at 1.5 µg/mL [6]: 10 to 15%

Question: With `O=c1ccn([C@H]2C[C@H](O)[C@@H](COP(=O)(O)O)O2)c(=O)[nH]1` [dUMP, 2′-deoxyuridine-5′-monophosphate, reference compound] as the molecule, how does the “FAD reduction (nmol)” value (PBCV-1 ThyX [7]) read?
Answer: 8.9^a nmol

Question: What about the “NADPH oxidation” value (PBCV-1 ThyX [7]) of the same molecule?
Answer: 11.3 nmol

Question: What about the “activating factor of NAD(P)H oxidase activity” value (PBCV-1 ThyX [8]) of the same molecule?
Answer: > 20

Question: And the “activating factor of NAD(P)H oxidase activity” value (Thermotoga maritima ThyX)?
Answer: 5–7

Question: Which results are given for `O=C(O)c1ccccc1NC1=CC(=O)c2c(O)cccc2C1=O` [B3-C1, 2-(5-hydroxy-1,4-dioxo-1,4-dihydronaphthalen-2-ylamino)benzoic acid]?
Answer: inhibition at 20 µM (PBCV-1 ThyX [1]): 12 ± 6%; IC50 (PBCV-1 ThyX [2]; [10]): > 10 µM

Question: Which “FAD reduction (nmol)” value (PBCV-1 ThyX [7]) does the source give for `COc1ccc(CC2=C(O)C(=O)c3ccccc3C2=O)cc1` [C8-C1, 2-hydroxy-3-(4-methoxybenzyl)-1,4-naphthoquinone] here?
Answer: 0^b nmol

Question: And the “NADPH oxidation” value (PBCV-1 ThyX [7])?
Answer: 0 nmol

Question: What about the inhibition at 20 µM (PBCV-1 ThyX [1]) of the same molecule?
Answer: 78 ± 4%

Question: And the “effect of ThyX overexpression on growth inhibition (selectivity factor)” value ([5]; 50 μg ml−1, with vs without IPTG induction)?
Answer: less-potent growth inhibition

Question: What about the IC50 (PBCV-1 ThyX [2]) of the same molecule?
Answer: 4.5 µM

Question: What about the “inhibition modality with respect to NADPH” value (PBCV-1 ThyX [2]; IC50 plotted against NADPH concentration) of the same molecule?
Answer: tight-binding uncompetitive inhibition

Question: What about the “inhibition modality with respect to dUMP” value (PBCV-1 ThyX [2]; IC50 plotted against dUMP concentration) of the same molecule?
Answer: tight-binding competitive inhibitor

Question: And the Ki (PBCV-1 ThyX [2]; Ki after correcting for total enzyme and dUMP concentration, competitive with respect to dUMP)?
Answer: 0.46 µM

Question: And the Ki (PBCV-1 ThyX [2]; apparent Ki (Morrison equation), with respect to dUMP, uncorrected)?
Answer: 1.5 µM

Question: What about the “Ki (uncompetitive, NADPH)” value (PBCV-1 ThyX [2]; with respect to NADPH) of the same molecule?
Answer: 4.45 µM

Question: What about the Kd (PBCV-1 ThyX [9]) of the same molecule?
Answer: ~0.4 µM
